Source: patent publication US6875418B2, “Method of early detection of Duchenne muscular dystrophy and other neuromuscular disease” (Mouse Specifics, Inc., priority 2001, dated 2005)

Key:
C57 mice [1] = test: Baroreflex pressor response to phenylephrine after β-adrenergic blockade in C57 mice; format: in vivo, mouse; settings: phenylephrine 3 mg/kg i.p. after propranolol 1 mg/kg
Experimental: (§1) ECGs were recorded in conscious mice as follows. Briefly, mice were gently removed from their cages and positioned on the ECG recording platform (AnonyMOUSE, Mouse Specifics, Inc., Boston, Mass.). An array of gel-coated ECG electrodes were embedded in the floor of the platform and spaced to provide contact between the electrodes and animals' paws. The electrodes were connected to an amplifier by three shielded conductive leads. As even modest handling of mice induces significant alterations in heart-rate, each mouse was permitted to acclimatize for 10 min prior to collection of baseline data. The signals were digitized with 16-bit precision at a sampling rate of 2000 samples/second. When mice were sitting or otherwise positioned such that the paws were not in contact with three electrodes, the output from the amplifier was discarded. Only data from continuous recordings of 15-25 ECG signals were used in the analyses.
(§2) Analyses of the ECGs were performed as described as follows. Each signal was analyzed using e-MOUSE, internet-based physiologic waveform analyses software. The program incorporates Fourier analyses and linear time-invariant digital filtering of frequencies below 2 Hz and above 100 Hz to minimize signal environmental disturbances. […] The mean of the ECG time intervals for each set of waveforms is then calculated.
(§3) Heart-rate variability (HRV) was calculated as the standard deviation of all R—R intervals for each set of ECG signals. The coefficient of variance (CV,%) was calculated as the ratio of mean HRV to mean heart-rate.
(§4) Mice were administered intraperitoneal phenylephrine (3 mg/kg) after β-adrenergic blockade with propranolol (1 mg/kg) to test for a baroreflex-mediated cardio-inhibitory response (n=10 mdx, n=7 C57).16,21 After baseline recordings, ECGs were recorded after a 5-10 min equilibrium phase following propranolol administration to allow for HR stabilization, and then within 2 min following phenylephrine administration. Changes in ECG indices following phenylephrine were determined relative to those recorded following propranolol administration. […]

nNOS -/- mice [2] = test: Baroreflex pressor response to phenylephrine in nNOS -/- mice; format: in vivo, mouse
B6129 mice = test: Baroreflex pressor response to phenylephrine in B6129 control mice; format: in vivo, mouse
mdx mice [3] = test: Baroreflex pressor response to phenylephrine after β-adrenergic blockade in mdx mice; format: in vivo, mouse; settings: phenylephrine 3 mg/kg i.p. after propranolol 1 mg/kg
Experimental: as §1, §2, §3, §4

nNOS -/- mice [4] = test: Autonomic blockade, ECG heart rate and heart-rate variability in conscious nNOS -/- mice
mdx mice [5] = test: Autonomic blockade, ECG heart rate and heart-rate variability in conscious mdx mice; format: in vivo, mouse
Experimental: (§5) Male control C57BL/10ScSn (C57, n=15) and male mutant (mdx, n=15) mice (10-12 weeks old) were obtained from The Jackson Laboratory, Bar Harbor, Me. The animals were housed in standard conditions within the Animal Resource Facility at the Beth Israel Deaconess Medical Center. Handling and care of mice were consistent with federal and institutional guidelines.
as §1
Analyses of the ECGs were performed as described as follows. Each signal was analyzed using e-MOUSE, internet-based physiologic waveform analyses software. […] The mean of the ECG time intervals for each set of waveforms is then calculated.
as §3
Parasympathetic and sympathetic nervous system control of heart-rate regulation were investigated by pharmacological blockade. […] Baseline ECGs were recorded within 5 min prior to each administration and after a 5-10 min equilibrium phase after drug administration to allow for HR stabilization. […]

C57 mice [6] = test: Autonomic blockade, ECG heart rate and heart-rate variability in conscious C57 control mice; format: in vivo, mouse
Experimental: as §5, §1
Analyses of the ECGs were performed as described as follows. Each signal was analyzed using e-MOUSE, internet-based physiologic waveform analyses software. The program incorporates Fourier analyses and linear time-invariant digital filtering of frequencies below 2 Hz and above 100 Hz to minimize signal environmental disturbances. The software uses a peak detection algorithm to find the peak of the R-waves and to calculate heart-rate (HR). The inverted and/or biphasic portions of the T wave was included in calculations of the QT interval. The QT intervals were rate corrected (QTc) by an algorithm developed for use in mice. The software plots its interpretation of P, Q, R, S, and T for each beat so that spurious data resulting from unfiltered noise or motion artifacts may be rejected. The mean of the ECG time intervals for each set of waveforms is then calculated.
as §3
Parasympathetic and sympathetic nervous system control of heart-rate regulation were investigated by pharmacological blockade. Mice received intraperitoneal administration of atropine (0.5 mg/kg) for parasympathetic blockade (n=15 mdx, n=15 C57), propranolol (1 mg/kg) for sympathetic blockade (n=10 mdx, n=7 C57), and atropine (0.5 mg/kg) plus propranolol (1 mg/kg) for combined β-adrenergic and muscarinic cholinergic blockade (n=10 mdx, n=7 C57). Baseline ECGs were recorded within 5 min prior to each administration and after a 5-10 min equilibrium phase after drug administration to allow for HR stabilization. The pharmacological interventions were performed on different days to prevent interference between drugs. […]
To study the effect of autonomic blockers on dystrophin deficient mice, parasympathetic and sympathetic nervous system control of heart-rate regulation were investigated by pharmacological blockade. […] Baseline ECGs were recorded within 5 min prior to each administration and after a 5-10 min equilibrium phase after drug administration to allow for HR stabilization.

[7] = within 2 min, relative to post-propranolol
[8] = phenylephrine after propranolol
[9] = C57 mice, i.p., 5-10 min after drug vs baseline, atropine 0.5 mg/kg, propranolol 1 mg/kg

SMILES: CNC[C@H](O)c1cccc(O)c1 [phenylephrine]
- CV after phenylephrine administration (C57 mice [1]): 15.8±2.4%
- HRV after phenylephrine administration (C57 mice [1]): 28.6 ± 4.1 ms
- change in HR after phenylephrine (C57 mice [1]; [7]): −312±27 bpm
- increase in HRV after phenylephrine (nNOS -/- mice [2]; Example 4): +13.3±3.7 ms
- change in HR after phenylephrine (nNOS -/- mice [2]; [8]): −288±39 bpm
- increase in HRV after phenylephrine (B6129 mice; Example 4): +11.8±3.7 ms
- change in HR after phenylephrine (B6129 mice; [8]): −360±6 bpm
- CV after phenylephrine administration (mdx mice [3]): 6.0±1.7%
- HRV after phenylephrine administration (mdx mice [3]): 8.5 ± 2.5 ms
- change in HR after phenylephrine (mdx mice [3]; [7]): −132±27 bpm

SMILES: CN1[C@@H]2CC[C@H]1C[C@@H](OC(=O)C(CO)c1ccccc1)C2 (stereo partly shown) [atropine]
- directional change in HR in response to drug (nNOS -/- mice [4]; FIG. 5): significantly increased HR
- HR after atropine administration (nNOS -/- mice [4]; baseline 686±22 bpm, P=0.07): 721±12 bpm
- HRV after atropine administration (nNOS -/- mice [4]; from 2.6±0.1 ms, P<0.05): 0.7 ± 0.1 ms
- CV after atropine administration (nNOS -/- mice [4]; from 2.7±0.8%, P<0.05): 0.8±0.1%
- direction of heart-rate change in individual mice (mdx mice [5]; mdx mice n=15, atropine 0.5 mg/kg i.p.): decreased in all 15 mdx mice
- HR decreased by (mdx mice [5]; mdx mice, atropine 0.5 mg/kg i.p., FIG. 2a legend): 90±14 bpm
- direction of heart-rate change in individual mice (C57 mice [6]; C57 mice n=15, atropine 0.5 mg/kg i.p.): increased in all but 2 of the C57 mice
- HRV after atropine administration (C57 mice [6]; C57 mice, atropine 0.5 mg/kg i.p., baseline 2.7±0.9 ms): 0.5 ± 0.9 ms
- change in HRV (C57 mice [6]; [9]): -1.6 ± 0.7 ms

SMILES: CC(C)NCC(O)COc1cccc2ccccc12 (stereo not shown) [propranolol]
- change in HR (mdx mice [5]; mdx mice, i.p., 5-10 min after drug vs baseline, atropine 0.5 mg/kg, propranolol 1 mg/kg, mean±SE): −60±27 bpm
- change in HRV (C57 mice [6]; [9]): more significant in C57 than mdx mice
- change in HR (C57 mice [6]; C57 mice, i.p., 5-10 min after drug vs baseline, atropine 0.5 mg/kg, propranolol 1 mg/kg, mean±SE): −122±53 bpm
